What all share (assay type): ADME
Holding throughout (conditions): isolated protein

Data set [1] has as its target T1, Albumin (Homo sapiens, UniProt P02768). The experiment in a line: Binding affinity to human serum albumin assessed as absorbance at 280 nanometer at 50 and 100 uM by UV-vis spectroscopy.
The target in data set [2] is T1, Albumin. The experiment in a line: Binding affinity to human serum albumin assessed as Stern-Volmer quenching constant in steady state at 298K and pH 7.4 by fluorescence spectroscopy.
For data set [3], the target named is T1, Albumin. Put plainly: Binding affinity to human serum albumin assessed as quenching constant in steady state at 298K and pH 7.4 by fluorescence spectroscopy.
The target in data set [4] is T1, Albumin. Put plainly: Binding affinity to human serum albumin assessed as binding constant in steady state at 298K and pH 7.4 by fluorescence spectroscopy.

Structures are written as SMILES.

T1 sequence (P02768 whole entry): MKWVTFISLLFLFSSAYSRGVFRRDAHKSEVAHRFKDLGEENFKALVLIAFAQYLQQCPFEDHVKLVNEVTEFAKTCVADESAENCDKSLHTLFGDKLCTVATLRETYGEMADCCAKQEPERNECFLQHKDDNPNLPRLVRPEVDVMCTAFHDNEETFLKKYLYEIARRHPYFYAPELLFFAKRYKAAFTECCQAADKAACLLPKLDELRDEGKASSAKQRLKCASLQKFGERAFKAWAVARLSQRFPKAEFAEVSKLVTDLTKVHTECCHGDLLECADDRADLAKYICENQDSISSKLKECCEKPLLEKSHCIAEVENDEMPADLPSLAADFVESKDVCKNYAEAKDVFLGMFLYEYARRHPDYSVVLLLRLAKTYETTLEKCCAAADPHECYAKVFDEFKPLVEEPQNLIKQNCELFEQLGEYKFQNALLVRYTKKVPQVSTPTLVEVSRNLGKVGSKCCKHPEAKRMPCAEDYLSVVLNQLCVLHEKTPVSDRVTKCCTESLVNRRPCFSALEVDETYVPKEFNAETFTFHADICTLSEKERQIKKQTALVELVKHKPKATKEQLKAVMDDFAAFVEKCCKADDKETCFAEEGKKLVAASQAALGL

Consider `CCCCCCCC/C=C\CCCCCCCc1nnc(C)o1`, for which the Activity at Albumin [1] is listed as < 0.03. Besides, the KSV at Albumin [2] is given as 3.6 ×10³ /M. For the same compound, the Kq at Albumin [3] is 6.4 ×10¹¹ /M/s. Also, the Kb on Albumin [4] is on record as 2.95 ×10³ /M.

These data come from ChEMBL document CHEMBL3865788, “Synthesis, characterization and interaction studies of 1,3,4-oxadiazole derivatives of fatty acid with human serum albumin (HSA): A combined multi-spectroscopic and molecular docking study” (Eur J Med Chem, 2016).
